Results published in patent US20130130928A1, “METHODS FOR PREDICTING OR MONITORING WHETHER A PATIENT AFFECTED BY A CANCER IS RESPONSIVE TO A TREATMENT WITH A MOLECULE OF THE TAXOID FAMILY” (INSTITUT GUSTAVE ROUSSY, priority 2010, published 2013).

Assays:
prostate cancer = details: cited from earlier work
IGR-CaP1 cells = test: Generation of acquired resistance to docetaxel in vitro (dose-escalation selection of clones); type: cell-based, human; details: selection with docetaxel, before proliferation was regained
Text: The prostate cancer cell line IGR-CaP1 is described in CNCM deposit number I-4126 on Feb. 10, 2009.
(§1) The human androgen-independent IGR-CaP1 cell line recently obtained for a localized prostate cancer was maintained in RPMI medium complemented with 10% FBS and antibiotics.
Prostate cancer IGR-CaP1 cells were used to generate successive docetaxel-resistant cell lines. […] Cell cycle analysis was done to show acquired resistance to drug.

[1] = system: IGR-CaP1 docetaxel-resistant cell lines (IGR-CaP1-R); test: Genome-wide microarray gene expression analysis of docetaxel-resistant vs parental IGR-CaP1 cells, first analysis (Tables 1-4, FC exp1); type: cell-based, human
Description: as §1
Quality of RNA preparation, based on the RNA Integrity Number (RIN), was assessed using the Agilent RNA 6000 Nano Kit as developed on the Agilent 2100 Bioanalyzer device (Agilent Technologies, Palo Alto, Calif.). […] RNA samples were frozen in nuclease-free water (Qiagen).
Parental and resistant-cell line total RNAs were directly compared by using Agilent oligonucleotide dual-color technology, running dye-swap and duplicate experiments. Total RNA from the parental IGR-CaP1 cell line without treatment was used as the RNA reference. […] Probe synthesis and labeling were performed by Agilent's Low Fluorescent Low input Linear Amplification Kit. Hybridization was performed on the Agilent 4×44K Human 1A (G4112F) long (60-bp) oligonucleotide microarrays (Agilent Technologies) by using reagents and protocols provided by the manufacturer. Feature extraction software provided by Agilent (Version A.9.5.3.1) was used to quantify the intensity of fluorescent images and to normalize results using the linear and lowess subtraction method.
The methodology described below is based on a dose-dependent gene expression changes:
Under the hypothesis of a clone enrichment, and/or a biological effect due to drug increasing, monotonically increasing or decreasing expression profiles were identified by using a 5-parameters logistic regression model:
where yg is the log.ratio of treatment vs. reference for the gene g, x is the drug-dose in Log10[nM], and B, T, xc, p are, respectively, the estimated minimal value, the estimated maximal value, the slope at the inflexion point, and the asymmetric parameter. For each probe, parameters were first initialized with the observed values, and then optimized by an iterative method of gradient (the Newton-Raphson method). The aim of this iterative algorithm is to minimize the weighted quadratic sum of residuals:
The performance of the fitting was measured, for each probe, by a robust linear regression (RLR) of the fitted values against the observed values. Probes potentially associated with the drug increasing were selected on the 2 following criterion:
RLRp-value ≦1e-5, and |fold change|≧2 between the first and the last dose (resp: 5 and 200 nM), considering the fold change estimated by the 5-parameters logistic regression model. Calculations and graphic visualizations were performed in R (free software version 2.6.2), by using the package “MASS” (version 7.2-40), and supplemental scripts, in R language, written in the lab (F. Commo).
Untreated IGR-CaP1 parental cell lines were used as baseline. Such genes were those for which expression changes (at least one probe in case of multiple probe sets per gene) appeared as drug-dependent, in the sense of criterion described above.

[2] = system: docetaxel resistant cells (PC3 and DU145); details: cited from earlier work
[3] = IGR-CaP1-R 100 nM docetaxel clone vs parental IGR-CaP1

## CC(=O)O[C@@]12CO[C@@H]1C[C@H](O)[C@@]1(C)C(=O)[C@H](O)C3=C(C)[C@@H](OC(=O)[C@H](O)[C@@H](NC(=O)OC(C)(C)C)c4ccccc4)C[C@@](O)([C@@H](OC(=O)c4ccccc4)[C@H]21)C3(C)C [docetaxel]
Prostate cancer; from the beginning or in a secondary way
  patients developing resistance to the chemotherapy: almost half
Prostate cancer; patients
  toxicity: great toxicity
Prostate cancer; prostate cancer patients, TAX 327 and SWOG 99-16
  survival: increase in survival
IGR-CaP1 cells
  cell death on addition of docetaxel: a large majority of cells initially underwent cell death
[1]; IGR-CaP1-R 5 nM docetaxel clone vs parental IGR-CaP1
  ZFP62 gene expression 5 nM: 0.190
[1]; IGR-CaP1-R 12 nM docetaxel clone vs parental IGR-CaP1
  ZFP62 gene expression 12 nM: 0.246
[1]; IGR-CaP1-R 25 nM docetaxel clone vs parental IGR-CaP1
  ZFP62 gene expression 25 nM: 0.278
[1]; IGR-CaP1-R 50 nM docetaxel clone vs parental IGR-CaP1
  ZFP62 gene expression 50 nM: 0.402
[1]; [3]
  LRRC44 gene expression 100 nM: 0.139
  ZFP62 gene expression 100 nM: 0.482
[1]; IGR-CaP1-R 200 nM docetaxel clone vs parental IGR-CaP1
  ZFP62 gene expression 200 nM: 0.503

## Oc1ccc(C=Cc2cc(O)cc(O)c2)cc1 [resveratrol]
[2]
  apoptosis: increase of apoptosis
  clusterin expression: decreased expression of clusterin
